Test results as given in US20170007559A1, “COMPOSITIONS AND METHODS FOR PROTECTING COLONIC EPITHELIAL BARRIER FUNCTION” (The University of Tennessee Research Foundation, priority 2015, published 2017).

What was measured:
[1] = tested on: reduced and oxidized protein thiols; experiment: Protein thiol assay in colon and ileum after total body irradiation; format: in vivo, mouse; conditions: TBI 4 Gy, 2 hours post irradiation
Description: In the first study, adult female (12-14 week's age) mice were subjected to total body irradiation (4 Gy). At 2-24 hours post-irradiation (IR), the integrity of colonic epithelial TJs, AJs and actin cytoskeleton was examined. In a second study, mice were randomized to four groups: Sham (control), IR, NAC and NAC+IR, and fed a liquid diet with (NAC and NAC+IR) or without (Sham and IR) 20 mM NAC for 5 days prior to irradiation. IR and NAC+IR mice were subjected to total body irradiation (4 Gy), while Sham and NAC mice were sham-treated. At 2 hours post-irradiation, colon and ileum were collected and examined for oxidative stress and epithelial junctional integrity. At the end of experiment, gut permeability was measured as described below. Colon and ileum segments were stored frozen for further analyses. Protein thiols in colonic sections were assessed as described before. Reduced protein thiols were evaluated by staining cryosections colon with BODIPY FL-N-(2-aminoethyl) maleimide (Flm) and confocal microscopy at excitation and emission wavelengths, 490 nm and 534 nm, respectively. For oxidized protein thiols, the reduced protein thiol was first alkylated with N-ethylmaleimide followed by reduction of oxidized protein thiols with tris (2-carboxyethyl) phosphine prior to staining with Flm. […] Fluorescence images collected and fluorescence quantitated by Image J software.

Caco-2 cell monolayers = experiment: Radiation-induced redistribution of TJ proteins in Caco-2 cell monolayers; format: cell-based; conditions: NAC 10 mM pretreatment for one hour, radiation 4 Gy
Description: Therefore, we evaluated the effect of radiation on barrier function and TJ proteins in Caco-2 and m-ICC12 cell monolayers in vitro. Barrier function was evaluated by measuring transepithelial electrical resistance (TER) and transepithelial flux of FITC-inulin in cell monolayers grown on transwell inserts. Cell monolayers were also fixed and stained for occludin and ZO-1 for confocal microscopy.
The effect of LPA was also tested in m-ICC12 cells at varying doses of radiation. LPA blocked IRR-induced redistribution of ZO-1 (FIG. 14C). […] These models can be used for further mechanistic studies.

[2] = tested on: colonic epithelial TJs, AJs and actin cytoskeleton; experiment: Immunofluorescence of TJ and AJ proteins and F-actin in mouse intestine after total body irradiation (4 Gy); format: in vivo; conditions: 20 mM NAC in liquid diet for 5 days prior to TBI 4 Gy, 2 hours post irradiation
Description: (§1) In the first study, adult female (12-14 week's age) mice were subjected to total body irradiation (4 Gy). At 2-24 hours post-irradiation (IR), the integrity of colonic epithelial TJs, AJs and actin cytoskeleton was examined. In a second study, mice were randomized to four groups: Sham (control), IR, NAC and NAC+IR, and fed a liquid diet with (NAC and NAC+IR) or without (Sham and IR) 20 mM NAC for 5 days prior to irradiation. IR and NAC+IR mice were subjected to total body irradiation (4 Gy), while Sham and NAC mice were sham-treated. At 2 hours post-irradiation, colon and ileum were collected and examined for oxidative stress and epithelial junctional integrity. At the end of experiment, gut permeability was measured as described below. Colon and ileum segments were stored frozen for further analyses.
Cryo-sections of colon (10 μm thickness) and ileum (12 μm thickness) were fixed in acetone methanol mixture (1:1) at […] for 2 min and rehydrated in phosphate buffered saline (PBS). Sections were permeabilized with 0.5% Triton X-100 in PBS for 15 min and blocked in 4% non-fat milk in TBST (20 mM Tris, pH 7.2 and 150 mM NaCl). It was then incubated for one hour with primary antibodies (mouse monoclonal anti-occludin and rabbit polyclonal anti-ZO-1 antibodies or mouse monoclonal E-cadherin and rabbit polyclonal anti-β-catenin antibodies), followed by incubation for one hour with secondary antibodies (AlexaFluor-488-conjugated anti-mouse IgG and Cy3-conjugated anti-rabbit IgG antibodies from Molecular Probes, Eugene, Oreg.) containing Hoechst 33342. The fluorescence was examined by using a confocal microscope (Zeiss 710) and images from x-y sections (1 μm) were collected using Zen software. Images were stacked using the Image J software (NIH) and processed by Adobe Photoshop (Adobe Systems Inc., San Jose, Calif.).
Studies were performed to evaluate the effect of RP-1 on radiation-induced redistribution of TJ and AJ proteins in mouse colon in vivo. Mice were subjected to TBI (4 Gy); in some groups, animals received a one-time injection of RP-1 (0.1 mg/kg) 30 min prior to IRR. At 2 hours post-IRR, cryosections of colon were stained for TJ and AJ proteins, images collected by confocal microscopy and fluorescence measured by densitometric analysis.

colonic loops = experiment: Inulin absorption from the lumen of isolated colonic loops of irradiated mice; format: in vivo, mouse; conditions: loops prepared 3 hours post irradiation from NAC-fed, incubated 75 min
Description: At 3 hours post irradiation, colonic loops were prepared and filled with 0.15 ml of 0.9% saline containing FITC-inulin (0.05 mg/ml) and incubated for 75 min in an incubator. Luminal contents were measured for fluorescence to evaluate inulin absorption from colonic lumen.

[3] = tested on: detergent-insoluble fractions of TJ and AJ proteins; experiment: Immunoblot of TJ and AJ proteins in detergent-insoluble fraction of distal colonic mucosa after total body irradiation; format: in vivo, mouse; conditions: 20 mM NAC in liquid diet for 5 days prior to TBI 4 Gy, 2 hours post irradiation
Description: as §1, with “Colon and ileum segments were stored frozen for further analyses.” left out
Actin-rich detergent-insoluble fraction was prepared as described previously (Elias, B. C.; Suzuki, T.; Seth, A.; Giorgianni, F.; Kale, G.; Shen, L.; Turner, J. R.; Naren, A.; Desiderio, D. M.; Rao, R. Phosphorylation of Tyr-398 and Tyr-402 in occludin prevents its interaction with ZO-1 and destabilizes its assembly at the tight junctions. J Biol Chem 284:1559-1569; 2009; Kale, G.; Naren, A. P.; Sheth, P.; Rao, R. K. Tyrosine phosphorylation of occludin attenuates its interactions with ZO-1, ZO-2, and ZO-3. Biochem Biophys Res Commun 302:324-329; 2003.). […] Protein content was measured by BCA method (Pierce Biotechnology, Rockford, Ill.). […]

[4] = tested on: intestinal mucosal barrier function; experiment: Gut permeability in vivo, vascular-to-luminal flux of FITC-inulin after total body irradiation; set-up: species or system mouse
Description: as §1, with “analyses. Mucosal barrier dysfunction was evaluated by measuring gut permeability to FITC-inulin (6 kDa). On the last day of experiment, mice were intravenously injected with FITC-inulin (50 mg/ml solution; 2 μl/g body weight) via tail vein. One hour after injection, blood samples were collected by cardiac puncture under isoflurane anesthesia for plasma preparation. Luminal contents from colon and ileum were flushed with 0.9% saline. Fluorescence in plasma and luminal flushing was measured using fluorescence plate reader. Fluorescence values in the luminal flushing were normalized to fluorescence values in corresponding plasma samples and calculated as percent of amount injected.” for “analyses.”

CC(=O)N[C@@H](CS)C(=O)O [NAC, N-acetyl L-cysteine]
radiation-induced decrease in stain for reduced protein thiols and increase in stain for oxidized protein thiols ([1]; NAC fed mice, confocal images): absent
radiation-induced conversion of reduced protein thiols into oxidized protein thiols, densitometric analysis of fluorescence ([1]; NAC feeding): attenuates
radiation-induced loss of junctional occludin and ZO-1 (Caco-2 cell monolayers): significantly blocked
radiation-induced redistribution of Cldn-3 ([2]; colon and ileum): blocked
radiation-induced redistribution of E-cadherin and β-catenin from the intercellular junctions ([2]; colon and ileum): absent
radiation-induced redistribution of occludin and ZO-1 from the intercellular junctions ([2]; colon and ileum): almost a complete attenuation
radiation-induced loss of F-actin (actin cytoskeleton), colon ([2]; colon): almost complete
radiation-induced loss of F-actin (actin cytoskeleton), ileum ([2]; ileum): only partially protected
radiation-induced increase in inulin absorbed from the lumen of colonic loops (colonic loops): absent
radiation-induced loss of detergent-insoluble fractions of TJ and AJ proteins [3]: blocked
mucosal permeability in colon or ileum, NAC by itself ([4]; NAC-fed, sham-treated mice (no irradiation)): no significant influence
radiation-induced increase in colonic mucosal permeability to FITC-inulin ([4]; colon, 20 mM NAC in liquid diet for 5 days prior to TBI 4 Gy, in vivo flux): effectively attenuated
radiation-induced increase in inulin permeability in the ileum ([4]; ileum, NAC supplementation in diet prior to TBI 4 Gy, in vivo flux): blocked
